Reference: patent US8058295B2, “Cystic fibrosis transmembrane conductance regulator protein inhibitors and uses thereof” (The Regents of the University of California, priority 2002, dated 2011)
Entries after “also recorded” stand apart in the source; their conditions may differ. Like-named read-outs stand apart in the source and are kept apart here.

Experiments:
CFTR Cl^− channel = molecular target: T1, CFTR Cl^− channel (Rattus norvegicus, UniProt P34158); test: Short-circuit current in isolated rat colonic mucosa; conditions: 5 μM to the mucosal solution alone, after amiloride and forskolin 20 μM
T1 construct: from tissue; host or cells: rat colon mucosa
T1 sequence (P34158 whole entry): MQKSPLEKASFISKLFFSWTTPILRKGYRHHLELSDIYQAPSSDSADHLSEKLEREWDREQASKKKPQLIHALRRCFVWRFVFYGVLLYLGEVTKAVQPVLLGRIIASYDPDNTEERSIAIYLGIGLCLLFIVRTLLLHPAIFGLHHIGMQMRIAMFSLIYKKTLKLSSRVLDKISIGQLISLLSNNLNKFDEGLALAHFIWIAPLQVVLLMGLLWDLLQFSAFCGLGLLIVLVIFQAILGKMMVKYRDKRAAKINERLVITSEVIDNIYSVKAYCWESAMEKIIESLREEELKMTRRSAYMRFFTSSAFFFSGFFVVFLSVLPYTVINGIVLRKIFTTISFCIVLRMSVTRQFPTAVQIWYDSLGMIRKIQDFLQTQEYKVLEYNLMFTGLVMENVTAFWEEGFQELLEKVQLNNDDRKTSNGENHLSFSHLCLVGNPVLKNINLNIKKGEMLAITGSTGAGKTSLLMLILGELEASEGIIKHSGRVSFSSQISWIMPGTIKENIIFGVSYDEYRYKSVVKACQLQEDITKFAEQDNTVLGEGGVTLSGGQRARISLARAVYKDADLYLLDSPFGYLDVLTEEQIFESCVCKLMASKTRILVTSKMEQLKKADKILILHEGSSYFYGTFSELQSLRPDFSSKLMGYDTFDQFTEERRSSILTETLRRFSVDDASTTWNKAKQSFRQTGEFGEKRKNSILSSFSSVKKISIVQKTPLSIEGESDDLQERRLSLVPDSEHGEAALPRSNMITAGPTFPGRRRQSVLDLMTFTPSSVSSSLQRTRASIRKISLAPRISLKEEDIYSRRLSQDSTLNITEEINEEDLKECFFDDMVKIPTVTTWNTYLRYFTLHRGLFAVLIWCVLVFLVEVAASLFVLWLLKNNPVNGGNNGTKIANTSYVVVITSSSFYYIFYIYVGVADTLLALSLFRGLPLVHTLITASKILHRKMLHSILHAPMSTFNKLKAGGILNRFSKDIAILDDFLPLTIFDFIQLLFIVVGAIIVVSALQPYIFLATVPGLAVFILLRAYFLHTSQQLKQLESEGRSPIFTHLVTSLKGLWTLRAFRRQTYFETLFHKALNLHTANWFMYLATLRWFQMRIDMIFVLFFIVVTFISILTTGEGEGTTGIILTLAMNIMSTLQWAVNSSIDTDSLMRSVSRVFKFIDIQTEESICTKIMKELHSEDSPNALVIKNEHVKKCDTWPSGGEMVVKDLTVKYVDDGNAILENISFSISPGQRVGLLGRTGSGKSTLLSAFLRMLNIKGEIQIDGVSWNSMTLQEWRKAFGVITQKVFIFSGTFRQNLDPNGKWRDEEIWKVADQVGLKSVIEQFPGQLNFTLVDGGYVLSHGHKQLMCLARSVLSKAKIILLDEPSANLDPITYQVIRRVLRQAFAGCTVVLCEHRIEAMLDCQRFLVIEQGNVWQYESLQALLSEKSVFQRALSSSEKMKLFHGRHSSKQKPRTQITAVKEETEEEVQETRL

CFTR [1] = molecular target: CFTR (Homo sapiens, UniProt P13569); test: Short-circuit current in T84 colonic epithelial cells
Chain of CFTR (Homo sapiens, UniProt P13569) (P13569 whole entry): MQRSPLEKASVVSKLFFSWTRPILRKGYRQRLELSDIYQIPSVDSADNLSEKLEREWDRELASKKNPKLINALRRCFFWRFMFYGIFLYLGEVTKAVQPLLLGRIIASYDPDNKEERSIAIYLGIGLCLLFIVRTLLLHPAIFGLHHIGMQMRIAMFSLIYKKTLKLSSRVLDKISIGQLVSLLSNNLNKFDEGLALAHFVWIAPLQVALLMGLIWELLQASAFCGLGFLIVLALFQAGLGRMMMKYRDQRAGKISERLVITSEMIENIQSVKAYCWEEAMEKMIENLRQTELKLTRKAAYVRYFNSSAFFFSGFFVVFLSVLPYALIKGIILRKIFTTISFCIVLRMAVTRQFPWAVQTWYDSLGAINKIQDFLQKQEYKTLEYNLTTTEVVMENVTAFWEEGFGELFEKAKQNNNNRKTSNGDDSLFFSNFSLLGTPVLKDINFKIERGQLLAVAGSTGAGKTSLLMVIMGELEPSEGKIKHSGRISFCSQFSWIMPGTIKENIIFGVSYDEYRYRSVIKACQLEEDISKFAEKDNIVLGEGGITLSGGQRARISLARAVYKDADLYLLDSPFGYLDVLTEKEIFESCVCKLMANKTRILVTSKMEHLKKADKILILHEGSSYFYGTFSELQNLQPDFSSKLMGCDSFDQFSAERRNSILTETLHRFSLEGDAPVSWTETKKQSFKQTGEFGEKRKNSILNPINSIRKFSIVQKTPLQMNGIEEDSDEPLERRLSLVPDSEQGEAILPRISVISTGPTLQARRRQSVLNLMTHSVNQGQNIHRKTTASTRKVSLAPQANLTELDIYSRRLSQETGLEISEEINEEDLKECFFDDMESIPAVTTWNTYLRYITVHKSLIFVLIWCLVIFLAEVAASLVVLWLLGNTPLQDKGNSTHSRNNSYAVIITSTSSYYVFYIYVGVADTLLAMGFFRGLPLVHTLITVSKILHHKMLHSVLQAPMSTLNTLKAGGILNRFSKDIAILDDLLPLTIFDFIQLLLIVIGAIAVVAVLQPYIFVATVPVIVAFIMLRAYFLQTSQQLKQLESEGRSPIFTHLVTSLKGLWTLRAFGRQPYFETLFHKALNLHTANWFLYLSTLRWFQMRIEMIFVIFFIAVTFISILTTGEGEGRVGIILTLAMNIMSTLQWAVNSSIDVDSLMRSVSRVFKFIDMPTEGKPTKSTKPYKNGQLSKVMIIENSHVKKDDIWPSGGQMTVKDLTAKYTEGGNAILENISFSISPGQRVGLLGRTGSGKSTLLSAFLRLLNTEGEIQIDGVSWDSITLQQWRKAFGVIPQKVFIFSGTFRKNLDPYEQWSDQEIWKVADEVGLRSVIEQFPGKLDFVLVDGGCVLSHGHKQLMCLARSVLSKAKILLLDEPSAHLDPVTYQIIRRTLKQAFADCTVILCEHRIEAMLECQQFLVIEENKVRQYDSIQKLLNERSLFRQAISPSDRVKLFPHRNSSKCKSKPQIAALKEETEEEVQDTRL

wildtype CFTR = wildtype CFTR (Homo sapiens, UniProt P13569); test: YFP fluorescence assay of CFTR-mediated I^− transport in FRT cells; assay type: cell-based; parameters: expressed in transfected cells; host or cells: Fischer rat thyroid (FRT) cells
Chain of wildtype CFTR (P13569 whole entry): as above
Experimental: FIG. 1A is a schematic representation of a screening technique used for detection of CFTR inhibitors. CFTR was maximally stimulated by multiple agonists in stably transfected epithelial cells co-expressing human CFTR and a yellow fluorescent protein (YFP) having Cl^−/I^− sensitive fluorescence. After addition of a test compound, I^− influx was induced by adding an I^− containing solution.
Cells were plated in 96-well black-walled microplates (Corning Costar) at a density of 20,000 cells per well in Coon's modified F12 medium supplemented with 5% fetal calf serum, 2 mM L-glutamine, 100 U/mL penicillin, and 100 μg/mL streptomycin. Assays were done at 48 hours after plating at which time cells were just confluent (˜40,000 cells per well).
Assays were done using a customized screening system (Beckman) consisting of a 3-meter robotic arm, CO2 incubator, plate washer, liquid handling workstation, bar code reader, delidding station, and two FluoStar fluorescence plate readers (BMG Labtechnologies, Offenburg, Germany), each equipped with two syringe pumps and HQ500/20X (500±10 nm) excitation and HQ535/30M (535±15 nm) emission filters (Chroma). The robotic system was integrated using SAMI version 3.3 software (Beckman) modified for two plate readers. Custom software was written in VBA (Visual Basic for Applications) to compute baseline-subtracted, normalized fluorescence slopes (giving halide influx rates) from stored data files.
The assay was set-up by loading the incubator (37° C., 90% humidity, 5% CO2) with 40-60 96-well plates containing the FRT cells, and loading a carousel with 96-well plates containing test compounds and disposable plastic pipette tips. To initiate the assay, each well of a 96-well plate was washed 3 times in PBS (300 μL/wash), leaving 50 μL PBS. Ten μL of a CFTR-activating cocktail (5 μM forskolin, 100 μM IBMX, 25 μM apigenin in PBS) was added, and after 5 min one test compound (0.5 μL of 1 mM DMSO solution) was added to each well to give 10 μM final concentration. After 10 min, 96-well plates were transferred to a plate reader for fluorescence assay. Each well was assayed individually for CFTR-mediated I^− transport by recording fluorescence continuously (200 ms per point) for 2 s (baseline) and then for 12 s after rapid (<0.5 s) addition of 160 μL of isosmolar PBS in which 137 mM Cl^− was replaced by I^−.
The primary screening technique used to identify the compounds of the invention was designed to identify inhibitors of CFTR Cl^− conductance by direct CFTR-inhibitor interaction. CFTR was pre-stimulated in CFTR-expressing FRT cells by an activating cocktail containing forskolin, IBMX and apigenin, as shown schematically in FIG. 1A. The activation of CFTR by multiple mechanisms (cAMP elevation, phosphodiesterase inhibition, and direct CFTR binding) allowed identification of inhibitors that blocked the CFTR Cl^− transporting pathway directly rather than more proximal step(s) in a signaling pathway. The FRT cells co-expressed a yellow fluorescent protein-based Cl^−/I^− sensor that provided a quantitative fluorescence read-out of inhibition potency (See, e.g., Jayaraman et al., 2000, J. Biol. Chem. 275:6047-6050; Galietta et al., 2001, Am. J. Physiol. 281:C1734-C1742.). After CFTR pre-stimulation and compound addition, cells were subjected to an inwardly-directed I^− gradient to drive I^− influx and produce decreasing fluorescence. Each assay consisted of recording baseline fluorescence for 2 seconds, followed by 12 seconds of continuous recording of fluorescence after rapid addition of the I^− containing solution. Compounds were tested separately at 10 μM concentration in a 96-well format utilizing a fully-automated high-throughput screening apparatus (see Example 2 below).

[2] = Pharmacokinetic analysis in rats after intravenous bolus; assay type: in vivo
Experimental: A bolus of ^14C-CFTRinh-172 (50 μCi) in PBS containing 3% DMSO (titrated to pH 7.4 using NaOH) was administered intravenously in rats over 1 min (male Sprague-Dawley rats, 360-420 grams) by an indwelling jugular catheter. Blood was collected from the catheter at specified times. ^14C-Radioactivity was determined in plasma (isolated by centrifugation of whole blood at 14,000 g for 10 min) by scintillation counting (Scintiverse SE, Fisher, Calif.) using a LS-6500 Multi-Purpose Scintillation Counter (Beckman). Pharmacokinetic analysis was done using WinNonLin software (Pharsight). Rats were sacrificed by pentobarbital overdose after collection of the final blood/tissue samples. All animal procedures were approved by the UCSF Committee on Animal Research.

CFTR [3] = molecular target: T2, CFTR (Mus musculus, UniProt P26361); test: Short-circuit current in mouse ileum
T2 construct: from tissue; host or cells: mouse ileum (wildtype CD1 mice)
T2 sequence (P26361 whole entry): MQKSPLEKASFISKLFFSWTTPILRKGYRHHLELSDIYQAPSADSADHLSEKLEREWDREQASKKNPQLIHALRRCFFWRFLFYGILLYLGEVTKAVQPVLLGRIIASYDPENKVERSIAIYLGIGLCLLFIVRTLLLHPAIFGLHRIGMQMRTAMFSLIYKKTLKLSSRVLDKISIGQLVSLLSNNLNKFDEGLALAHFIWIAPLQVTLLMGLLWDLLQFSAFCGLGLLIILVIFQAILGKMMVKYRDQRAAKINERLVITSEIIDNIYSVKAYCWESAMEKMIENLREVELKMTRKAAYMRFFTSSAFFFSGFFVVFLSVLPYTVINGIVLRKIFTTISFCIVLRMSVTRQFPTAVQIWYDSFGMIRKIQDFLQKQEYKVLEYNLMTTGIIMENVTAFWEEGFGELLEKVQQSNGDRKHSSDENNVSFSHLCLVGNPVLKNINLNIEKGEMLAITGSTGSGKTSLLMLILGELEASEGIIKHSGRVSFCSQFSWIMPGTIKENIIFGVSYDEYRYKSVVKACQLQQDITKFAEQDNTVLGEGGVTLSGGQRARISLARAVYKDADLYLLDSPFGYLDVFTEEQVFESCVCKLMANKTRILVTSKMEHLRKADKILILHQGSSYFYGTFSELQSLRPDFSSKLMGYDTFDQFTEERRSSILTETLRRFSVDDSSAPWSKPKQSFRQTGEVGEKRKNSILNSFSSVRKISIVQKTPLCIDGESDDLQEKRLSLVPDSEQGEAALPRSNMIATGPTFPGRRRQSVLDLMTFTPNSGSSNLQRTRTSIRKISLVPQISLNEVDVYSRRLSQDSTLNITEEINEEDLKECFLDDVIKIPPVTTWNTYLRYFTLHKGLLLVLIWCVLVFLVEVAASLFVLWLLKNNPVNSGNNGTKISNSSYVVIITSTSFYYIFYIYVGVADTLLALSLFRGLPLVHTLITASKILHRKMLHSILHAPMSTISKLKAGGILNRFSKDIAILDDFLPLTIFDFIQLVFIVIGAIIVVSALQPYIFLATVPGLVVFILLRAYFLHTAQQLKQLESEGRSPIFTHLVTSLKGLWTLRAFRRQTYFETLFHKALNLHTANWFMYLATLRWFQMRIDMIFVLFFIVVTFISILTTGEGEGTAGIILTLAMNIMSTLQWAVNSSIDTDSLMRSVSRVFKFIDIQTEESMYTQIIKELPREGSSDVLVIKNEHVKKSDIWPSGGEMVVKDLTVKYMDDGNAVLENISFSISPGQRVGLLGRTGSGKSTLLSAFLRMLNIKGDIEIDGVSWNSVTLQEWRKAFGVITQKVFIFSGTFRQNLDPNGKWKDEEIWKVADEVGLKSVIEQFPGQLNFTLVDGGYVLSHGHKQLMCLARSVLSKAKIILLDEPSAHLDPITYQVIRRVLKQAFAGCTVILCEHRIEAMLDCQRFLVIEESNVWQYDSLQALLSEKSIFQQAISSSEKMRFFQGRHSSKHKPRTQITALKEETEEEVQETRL

[4] = system: cholera toxin-induced intestinal fluid secretion; parameters: species or system mice; conditions: mouse, in vivo, ip
[5] = system: cholera toxin-induced fluid secretion; parameters: species or system rats; conditions: in vivo
[6] = rat, i.v. bolus, 2-compartment model

In the case of `O=C(O)c1ccc(/C=C2\SC(=S)N(c3cccc(C(F)(F)F)c3)C2=O)cc1` [CFTRinh-172, 3-[(3-trifluoromethyl)phenyl]-5-[(4-carboxyphenyl)methylene]-2-thioxo-4-thiazolidinone], the “reduction of short-circuit current” value (CFTR Cl^− channel) is reported as over 80%, the IC50 (CFTR [1]) is reported as about 3 µM and the Ki (CFTR [1]; KI, cells depolarized by high-K^+ basolateral solution) is reported as about 0.3 µM. For the same molecule, the Ki (CFTR [1]; apparent KI, after basolateral permeabilization with amphotericin B, Cl^− gradient) was 0.3 µM, the Ki (CFTR [1]; apparent KI, non-permeabilized T84 cells) was about 3 µM and the “concentration giving significant CFTR inhibition” value (wildtype CFTR; dose-inhibition, FIG. 2A) was 0.3 to 0.6 µM. The “relative potency (CFTR inhibition)” value (wildtype CFTR; relative to CFTRinh-172 = 1.0) was 1.0, the detection in plasma ([2]; 72 hr after administration) was “No ^14C-labeled CFTRinh-172 was detected” and the “detection in liver or kidney homogenates” value ([2]; 14 days after administration) was “No ^14C-labeled CFTRinh-172 was detected”. For the same molecule, the “area under curve (AUC)” value [2, 6] was 3800 ng·h/mL, the clearance [2, 6] was 99 mL/h and the elimination half-time [2, 6] was 10.3 h. It also gave a maximum serum concentration [2, 6] of 3.2 µg/mL, a redistribution half-time [2, 6] of 0.14 h and a volume of distribution [2, 6] of 1.2 L. The IC50 (CFTR [3]; forskolin (cAMP-dependent chloride secretion), read-out: concentration for fifty percent inhibition of short-circuit current) was about 5 µM, the IC50 (CFTR [3]; intact intestine, read-out: apparent potency for inhibition of intestinal short-circuit current) was 2 to 5 µM and the “fluid accumulation in cholera toxin-treated loops” value [4] was “effectively prevented fluid accumulation; also recorded: significantly reduced fluid secretion to that in saline control loops”. For the same molecule, the “inhibition of fluid accumulation in cholera toxin-injected loops” value [4] was about 90%, the “inhibition of luminal fluid accumulation” value [4] was “significant inhibition of luminal fluid accumulation; also recorded: much less inhibition” and the “t1/2 for persistence of inhibition” value [4] was 9 to 10 h. The “cholera-toxin induced fluid secretion in rat intestinal loops” value [5] was “prevented cholera-toxin induced fluid secretion”.
